US4755526A, “Method of inhibiting aromatase” (Eli Lilly and Company, priority 1984, dated 1988)

Columns and labels:
estrogen synthesis = assay: Estrogen synthesis inhibition in rats (uterine weight and ovarian steroid concentrations); assay type: in vivo, female Wistar rats; conditions: for Mean Steroid Concentration, estrone / Mean Steroid Concentration, estradiol / Mean Steroid Concentration, estriol: ovaries; for Mean Uterine Weight: testosterone propionate-treated rats
Method: Test compounds were administered for seven days either daily by gavage in corn oil or as a component of the diet. Control animals received either corn oil or diet without the test compound. Beginning on the fourth day of the test, all animals treated with the test compound and one half of the control animals were given a subcutaneous injection of 1.0 mg of testosterone propionate in corn oil. The remaining control animals received only an equivalent volume of corn oil.
After two hours, the animals were killed by decapitation. Uteri were isolated, trimmed of extraneous connective tissue, and weighed. […] In the control animals treated with testosterone propionate, estrogens produced by aromatization stimulated the uterus resulting in an increase in weight.
The ovarian steroids were extracted with 1.5 ml of 9:1 (v/v) toluene/ethanol to which had been added 25 to 100 mcg each of unlabelled estradiol, estriol, and estrone, and approximately 1000 dpm of [^14 C]-estradiol. The samples were vortexed, centrifuged at 500×g for 10 minutes, and the organic phase was transferred to a conical vial. Two additional extractions were performed on the residue in the same way. The pooled organic extracts were evaporated for subsequent thin-layer chromatography.
Ovarian proteins were precipitated by the addition of 5.0 ml of ethanol to the remaining aqueous phase. After an overnight incubation at 4° C., the samples were centrifuged at 1500×g for 10 minutes. The supernatant was discarded, and the pellet was dissolved in 0.3N potassium hydroxide.
The organic residue from each above extraction was redissolved in 9:1 (v/v) dichloromethane/methanol. The solution of each sample was applied to separate silica gel thin layer chromatography plates which contained a fluorescent indicator. The plates were developed in the first dimension with 160:38:1.5:0.5 (v/v/v/v) dichloromethane/ethyl acetate/methanol/acetic acid to within 3 cm of the top of the plate. After air-drying, the plate was developed in the second dimension with 180:19:1 (v/v/v) dichloromethane/methanol/ammonium hydroxide. The plate was air-dried and viewed under 254 nm UV light.
The visible spots were marked and the plates were sprayed with primulin (0.001% in 4:1 v/v acetone/water) according to the method of Wright, J. Chromatography, 59, 220 (1971) which allowed for the identification of additional steroids under 365 nm UV light. The spots were scraped from the plate using a glass wool plugged Pasteur pipet attached to a vacuum line. The steroids were eluted directly into scintillation vials by the addition of 0.2 ml of dichloromethane followed by two washes each of 2.0 ml of methanol. The organic solvent was evaporated and 10.0 ml of scintillation fluid (Beckman Ready Solv-NA) was added to the vials. Samples were analyzed by liquid scintillation spectrometry. Corrections were made based on the recoveries of the [^14 C]-steroid. Steroid concentrations are expressed as femtomoles per milligram protein.

[1] = test system: DMBA-induced mammary tumors; assay: DMBA-induced mammary tumor inhibition; assay type: in vivo, female Sprague-Dawley rats
Method: Mammary tumors were produced in female Sprague-Dawley rats which were 50-60 days old by the gavage administration of 20 mg of 7,12-dimethylbenz[a]anthracene (DMBA). About six weeks after DMBA administration, the mammary glands were palpated at weekly intervals for the appearance of tumors. Whenever one or more tumors appeared and were measurable in an animal, that animal was selected for experimentation. […] Each control and test group contained 8 animals. The test compound was administered either mixed into the food at a concentration of 300 ppm (corresponding to an appropriate daily dose of 30 mg/kg) or the compounds were dissolved or suspended in corn oil and administered once daily by gavage. Every experiment included a group of control rats having tumors and were either given food without the compound admixed or corn oil vehicle by gavage, depending on how the test compound was administered. […] The area of each tumor was calculated by multiplying the shortest and longest diameters of the tumor. The treatment and measurement of animals continued for 4-8 weeks at which time the final areas of the tumors were determined. For each compound (and control) at each dose level, the change in the mean tumor area was determined. The mean change was analyzed for its significance using Dunnett's t-test.

breast cancer = conditions: Cancer Research, Vol. 42, Suppl. 8: 3261s (1982); cited from earlier work
[2] = 30 ppm in feed (approximately 3 mg/kg/day)
[3] = 300 ppm in feed (approximately 30 mg/kg/day)
[4] = 300 ppm in diet, 4 weeks, control 62.8 to 1087.3 (Test II), 1087.0 (Test III)

| SMILES | Mean Steroid Concentration, estrone (estrogen synthesis; [2]) | Mean Uterine Weight (estrogen synthesis; [2]) [mg] | Mean Uterine Weight (estrogen synthesis; [3]) [mg] | Mean Tumor Area, Start ([1]; 5 mg/kg daily by gavage, 4 weeks test) [mm^2] | Mean Tumor Area, Finish ([1]; 5 mg/kg daily by gavage, 4 weeks, control 54.8 to 914.0) [mm^2] | Mean Tumor Area, Start ([1]; 30 mg/kg daily by gavage, 4 weeks test) [mm^2] | Mean Tumor Area, Finish ([1]; 30 mg/kg daily by gavage, 4 weeks, control 54.8 to 914.0) [mm^2] | Mean Tumor Area, Start ([1]; 300 ppm in diet, 6 weeks test) [mm^2] | Mean Tumor Area, Finish ([1]; 300 ppm in diet, 6 weeks, control 49.6 to 752.1) [mm^2] | Mean Steroid Concentration, estradiol (estrogen synthesis; [2]) | Mean Steroid Concentration, estriol (estrogen synthesis; [2]) | Mean Steroid Concentration, estradiol (estrogen synthesis; [3]) | Mean Steroid Concentration, estriol (estrogen synthesis; [3]) | Mean Steroid Concentration, estrone (estrogen synthesis; [3]) | Mean Tumor Area, Start ([1]; 300 ppm in diet, 4 weeks test) [mm^2] | Mean Tumor Area, Finish [1, 4] [mm^2] | effect in treatment of breast cancer (breast cancer) | Mean Tumor Area, Start ([1]; 300 ppm in diet, 5 weeks test) [mm^2] | Mean Tumor Area, Finish ([1]; 300 ppm in diet, 5 weeks, control 48.4 to 818.0) [mm^2] |
| --- | --- | --- | --- | --- | --- | --- | --- | --- | --- | --- | --- | --- | --- | --- | --- | --- | --- | --- | --- |
| Clc1ccc(C(c2ccc(Cl)cc2)n2ccnc2)cc1 [1-[bis(4-chlorophenyl)methyl]imidazole] | 0.09 femtomoles per milligram of protein | 85.3 | 66.0 | 44.8 | 346.0 | 62.4 | 276.0 | 57.4 | 40.8 | – | – | – | – | – | – | – | – | – | – |
| O=[N+]([O-])c1ccc(C(c2ccc([N+](=O)[O-])cc2)n2ccnc2)cc1 [1-[bis(4-nitrophenyl)methyl]imidazole] | 1.58 femtomoles per milligram of protein | 105.0 | 110.8 | – | – | – | – | – | – | 0.92 femtomoles per milligram of protein | 1.65 femtomoles per milligram of protein | 0.28 femtomoles per milligram of protein | 0.83 femtomoles per milligram of protein | 0.94 femtomoles per milligram of protein | 64.5 | 18.9 | – | – | – |
| Clc1ccc(C(c2ccc(Cl)cc2)(c2cccnc2)n2ccnc2)cc1 [3-[4,4'-dichloro-α-(1-imidazolyl)diphenylmethyl]pyridine] | 0.11 femtomoles per milligram of protein | 118.0 | 96.8 | – | – | – | – | – | – | 1.25 femtomoles per milligram of protein | 0.27 femtomoles per milligram of protein | 0.75 femtomoles per milligram of protein | 0.28 femtomoles per milligram of protein | 0.24 femtomoles per milligram of protein | 53.8 | 154.0 | – | – | – |
| C[C@]12C=CC(=O)C=C1CC[C@@H]1[C@@H]2CC[C@]2(C)OC(=O)CC[C@@H]12 [testolactone] | – | – | – | – | – | – | – | – | – | – | – | – | – | – | – | – | beneficial effect in treatment of breast cancer | – | – |
| Clc1ccc(C(c2ccccc2)n2ccnc2)cc1 (stereo not shown) [1-[(4-chlorophenyl)phenylmethyl]-1H--imidazole] | – | 114.8 | 68.4 | – | – | – | – | – | – | 0.92 femtomoles per milligram of protein | 0.75 femtomoles per milligram of protein | 0.00 femtomoles per milligram of protein | 0.35 femtomoles per milligram of protein | 0.11 femtomoles per milligram of protein | – | – | – | 49.3 | 467.0 |
| CCC1(c2ccc(N)cc2)CCC(=O)NC1=O (stereo not shown) [aminoglutethimide] | – | – | – | – | – | – | – | – | – | – | – | – | – | – | – | – | beneficial effect in treatment of breast cancer | – | – |
